Results: ChEMBL document CHEMBL3813594, “Design and structure-activity relationships of novel inhibitors of human rhinovirus 3C protease” (Bioorg Med Chem Lett, 2016)

Assays:
[1] = Antiviral activity against human rhinovirus 17 assessed as reduction in viral infection in human HeLa H1 cells pretreated for 1 to 2 hrs with virus followed by cell addition measured after 48 hrs by Celltiter-Glo reagent based assay; assay type: functional, Human rhinovirus B17
[2] = Antiviral activity against human rhinovirus 7 assessed as reduction in viral infection in human HeLa H1 cells pretreated for 1 to 2 hrs with virus followed by cell addition measured after 48 hrs by Celltiter-Glo reagent based assay; assay type: functional, Human rhinovirus A7; details: Rhinovirus A
[3] = system: rhinovirus A2; assay: Antiviral activity against human rhinovirus 2 assessed as reduction in viral infection in human HeLa H1 cells pretreated for 1 to 2 hrs with virus followed by cell addition measured after 48 hrs by Celltiter-Glo reagent based assay; assay type: functional, organism-based
[4] = system: rhinovirus A16; assay: Antiviral activity against human rhinovirus 16 assessed as reduction in viral infection in human HeLa H1 cells pretreated for 1 to 2 hrs with virus followed by cell addition measured after 48 hrs by Celltiter-Glo reagent based assay; assay type: functional, organism-based
[5] = Antiviral activity against human rhinovirus 8 assessed as reduction in viral infection in human HeLa H1 cells pretreated for 1 to 2 hrs with virus followed by cell addition measured after 48 hrs by Celltiter-Glo reagent based assay; assay type: functional, Human rhinovirus A8; details: Rhinovirus A
[6] = system: rhinovirus A85; assay: Antiviral activity against human rhinovirus 85 assessed as reduction in viral infection in human HeLa H1 cells pretreated for 1 to 2 hrs with virus followed by cell addition measured after 48 hrs by Celltiter-Glo reagent based assay; assay type: functional, organism-based; details: Rhinovirus A
[7] = Antiviral activity against human rhinovirus 100 assessed as reduction in viral infection in human HeLa H1 cells pretreated for 1 to 2 hrs with virus followed by cell addition measured after 48 hrs by Celltiter-Glo reagent based assay; assay type: functional, Human rhinovirus A100; details: Rhinovirus A
[8] = system: rhinovirus A25; assay: Antiviral activity against human rhinovirus 25 assessed as reduction in viral infection in human HeLa H1 cells pretreated for 1 to 2 hrs with virus followed by cell addition measured after 48 hrs by Celltiter-Glo reagent based assay; assay type: functional, organism-based; details: Rhinovirus A
[9] = system: rhinovirus B14; assay: Antiviral activity against human rhinovirus 14 assessed as reduction in viral infection in human HeLa H1 cells pretreated for 1 to 2 hrs with virus followed by cell addition measured after 48 hrs by Celltiter-Glo reagent based assay; assay type: functional, organism-based; details: Rhinovirus B
[10] = system: rhinovirus A41; assay: Antiviral activity against human rhinovirus 41 assessed as reduction in viral infection in human HeLa H1 cells pretreated for 1 to 2 hrs with virus followed by cell addition measured after 48 hrs by Celltiter-Glo reagent based assay; assay type: functional, organism-based; details: Rhinovirus A
[11] = system: rhinovirus A2; assay: Antiviral activity against human rhinovirus 2 assessed as reduction in viral infection in human HeLa H1 cells after 2 to 5 days by XTT reduction assay; assay type: functional, organism-based; details: Rhinovirus A
[12] = Antiviral activity against human rhinovirus 17 assessed as reduction in viral infection in human HeLa H1 cells after 2 to 5 days by XTT reduction assay; assay type: functional, cell-based, Human rhinovirus B17; details: Rhinovirus B
[13] = system: rhinovirus A16; assay: Antiviral activity against human rhinovirus 16 assessed as reduction in viral infection in human HeLa H1 cells after 2 to 5 days by XTT reduction assay; assay type: functional, organism-based; details: Rhinovirus A

| Compound | EC50 ([1]; Rhinovirus B, HeLa H1) [nM] | EC50 [2] [nM] | EC50 ([3]; Rhinovirus A, HeLa H1) [nM] | EC50 ([4]; Rhinovirus A, HeLa H1) [nM] | EC50 [5] [nM] | EC50 [6] [nM] | EC50 [7] [nM] | EC50 [8] [nM] | EC50 [9] [nM] | EC50 [10] [nM] | EC50 [11] [nM] | EC50 [12] [nM] | EC50 [13] [nM] | EC50 ([1]; hela h1) [nM] | EC50 ([3]; hela h1) [nM] | EC50 ([4]; hela h1) [nM] |
| --- | --- | --- | --- | --- | --- | --- | --- | --- | --- | --- | --- | --- | --- | --- | --- | --- |
| CCOC(=O)/C=C/[C@H](C[C@@H]1CCNC1=O)NC(=O)[C@@H]1C[C@@H](c2ccccc2)CN1C(=O)[C@@H](NC(=O)c1cc(C)on1)C(C)C | 11 | 81 | 140 | 24 | 37 | 250 | 110 | 19 | 13 | 130 |  |  |  |  |  |  |
| CCOC(=O)/C=C/[C@H](C[C@@H]1CCNC1=O)NC(=O)[C@@H](CC(=O)[C@@H](NC(=O)c1cc(C)on1)C(C)C)Cc1ccc(F)cc1 [RUPINTRIVIR] |  |  |  |  |  |  |  |  |  |  | 12 | 14 | 14 |  |  |  |
| CCOC(=O)/C=C/[C@H](C[C@@H]1CCNC1=O)NC(=O)[C@@H]1C[C@@H](CC#N)CN1C(=O)[C@@H](NC(=O)c1cc(C)on1)C(C)C | 500 |  | 430 | 199 |  |  |  |  |  |  |  |  |  |  |  |  |
| CCOC(=O)/C=C/[C@H](C[C@@H]1CCNC1=O)NC(=O)[C@@H]1CCCN1C(=O)[C@@H](NC(=O)c1cc(C)on1)C(C)C | 230 | 1300 | 1390 | 400 | 590 | 4200 | 1800 | 1890 | 470 | 1450 |  |  |  |  |  |  |
| CCOC(=O)/C=C/[C@H](C[C@@H]1CCNC1=O)NC(=O)[C@@H]1[C@@H](c2ccccc2)CN1C(=O)[C@@H](NC(=O)c1cc(C)on1)C(C)C (stereo in doubt; 10) |  | 420 |  |  | 170 | 1140 | 470 | 100 | 91 | 530 |  |  |  | 90 | 300 | 300 |
| CCOC(=O)/C=C/[C@H](C[C@@H]1CCNC1=O)NC(=O)[C@@H]1C[C@@H](C2CCCCC2)CN1C(=O)[C@@H](NC(=O)c1cc(C)on1)C(C)C | 7 | 47 | 46 | 15 | 22 | 94 | 80 | 9 | 11 | 90 |  |  |  |  |  |  |
| CCOC(=O)/C=C/[C@H](C[C@@H]1CCNC1=O)NC(=O)[C@@H]1[C@@H](c2ccccc2)CN1C(=O)[C@@H](NC(=O)c1cc(C)on1)C(C)C (stereo in doubt; 11) |  |  |  |  |  |  |  |  |  |  |  |  |  | > 50000 | > 50000 | > 50000 |
| CCOC(=O)/C=C/[C@H](C[C@@H]1CCNC1=O)NC(=O)[C@@H]1C[C@@H](Oc2ccccc2)CN1C(=O)[C@@H](NC(=O)c1cc(C)on1)C(C)C | 260 |  | 270 | 59 |  |  |  |  |  |  |  |  |  |  |  |  |
| CCOC(=O)/C=C/[C@H](C[C@@H]1CCNC1=O)NC(=O)[C@@H]1[C@@H](c2ccccc2)CCN1C(=O)[C@@H](NC(=O)c1cc(C)on1)C(C)C | 700 | 8300 | 8400 | 3000 | 3500 | 9300 | 6500 | 4500 | 2500 | 4500 |  |  |  |  |  |  |
| CCOC(=O)/C=C/[C@H](C[C@@H]1CCNC1=O)NC(=O)[C@@H]1C[C@@H](Cc2ccccc2)CN1C(=O)[C@@H](NC(=O)c1cc(C)on1)C(C)C | 190 |  | 300 | 47 |  |  |  |  |  |  |  |  |  |  |  |  |
| CCOC(=O)/C=C/[C@H](C[C@@H]1CCNC1=O)NC(=O)[C@@H]1CC[C@@H](c2ccccc2)N1C(=O)[C@@H](NC(=O)c1cc(C)on1)C(C)C | 150 |  | 1900 | 260 |  |  |  |  |  |  |  |  |  |  |  |  |
